Test results as given in US20240115557A1, “INHIBITORS OF RNA-GUIDED NUCLEASES AND USES THEREOF” (The Brigham and Women's Hospital, Inc., priority 2022, published 2024).

Target: T1, SaCas9 (Staphylococcus aureus, UniProt J7RUA5)
T1 sequence (J7RUA5 1-1053): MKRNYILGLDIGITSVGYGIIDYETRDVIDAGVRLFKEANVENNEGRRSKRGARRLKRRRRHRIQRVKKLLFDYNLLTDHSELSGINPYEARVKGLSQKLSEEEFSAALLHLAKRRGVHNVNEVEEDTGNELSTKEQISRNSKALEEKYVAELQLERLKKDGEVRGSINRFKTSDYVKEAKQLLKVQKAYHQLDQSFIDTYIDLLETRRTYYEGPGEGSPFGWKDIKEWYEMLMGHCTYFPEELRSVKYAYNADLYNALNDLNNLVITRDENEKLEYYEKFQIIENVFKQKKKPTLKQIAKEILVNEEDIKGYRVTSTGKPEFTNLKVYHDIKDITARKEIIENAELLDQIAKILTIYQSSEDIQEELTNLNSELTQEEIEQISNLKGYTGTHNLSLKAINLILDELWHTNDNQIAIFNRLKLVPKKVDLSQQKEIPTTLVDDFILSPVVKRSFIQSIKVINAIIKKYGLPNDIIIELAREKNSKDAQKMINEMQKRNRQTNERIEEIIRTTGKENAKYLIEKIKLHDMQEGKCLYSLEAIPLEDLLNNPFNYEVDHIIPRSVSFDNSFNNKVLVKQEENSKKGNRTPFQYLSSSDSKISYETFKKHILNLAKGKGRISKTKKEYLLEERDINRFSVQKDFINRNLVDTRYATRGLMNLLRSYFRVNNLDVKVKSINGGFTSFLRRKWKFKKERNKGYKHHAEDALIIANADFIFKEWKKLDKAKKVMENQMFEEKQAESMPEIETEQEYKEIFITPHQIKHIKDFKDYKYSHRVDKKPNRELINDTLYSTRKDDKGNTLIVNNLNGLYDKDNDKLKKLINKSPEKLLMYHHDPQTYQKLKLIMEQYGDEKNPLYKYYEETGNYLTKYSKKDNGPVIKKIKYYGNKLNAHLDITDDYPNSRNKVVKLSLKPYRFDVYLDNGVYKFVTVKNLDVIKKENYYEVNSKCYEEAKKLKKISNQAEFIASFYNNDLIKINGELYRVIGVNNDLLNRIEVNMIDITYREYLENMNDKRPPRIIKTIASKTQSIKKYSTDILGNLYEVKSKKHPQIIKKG
Test: eGFP secondary assay, SaCas9
Format: cell-based
Conditions: for Z score Avg Z: average of two replicates, Zscore>3 selected as hit; for Normalized Inhibition Rep 1: replicate 1; for Normalized eGFP Disruption Rep 1: replicate 1, % eGFP disruption; for Z score Rep1: replicate 1, Zscore>3 selected as hit; for Normalized Inhibition Rep 2: replicate 2; for Normalized eGFP Disruption Rep 2: replicate 2, % eGFP disruption; for Z score Rep 2: replicate 2, Zscore>3 selected as hit
Description: All hit compounds were moved forward into the secondary and tertiary screens, in which they were tested in cell-based assays. An eGFP assay is used to determine hits in cells as the secondary screen (eGFP assay).
The eGFP secondary assay evaluated the hits identified from the primary screen. The compounds were judged off the % eGFP disruption to determine the Cas9 inhibition and the assay Zscore. […] The hits from the secondary screens will be processed through tertiary screens of dose studies and HiBit Assay as detailed herein.

SMILES	Z score Avg Z	Normalized Inhibition Rep 1	Normalized eGFP Disruption Rep 1	Z score Rep1	Normalized Inhibition Rep 2	Normalized eGFP Disruption Rep 2	Z score Rep 2
CCCCn1nnnc1NCc1ccc2c(c1)n(C)c(=O)n2C [Compound D664-0047]	4.425	21.201	78.799	3.210	47.229	52.771	5.639
Cc1nc2nc(N(CCOc3ccccc3)S(=O)(=O)c3ccccc3)nn2c(C)c1Cl [D513-3628]	5.173	51.726	48.274	5.201	66.480	33.520	5.145
Cc1ccc(-n2ncc(C(=O)Nc3ccc(Br)cc3)c2C2CCNCC2)cc1 [Compound E922-0258]	7.627	63.301	36.699	7.494	59.004	40.996	7.761
Cc1nc(Nc2ccc(N3CCOCC3)cc2)cc(-c2ccccc2)n1 [D278-0547]	4.467	55.528	44.472	5.583	43.307	56.693	3.352
COc1ccccc1-c1nn2c(-c3cccnc3)nnc2s1 [D727-0059]	3.290	17.227	82.773	2.609	33.253	66.747	3.970
Cc1cccc(NC(=O)c2cc3c(=O)n4ccccc4nc3s2)c1 [C243-0026]	3.100	30.470	69.530	3.063	40.519	59.481	3.136
CC(=O)Nc1ccc(C(=O)Nc2ccc(CCc3nc4ccccc4n3-c3ccccc3)cc2)cc1 [F255-0057]	5.773	46.812	53.188	5.542	45.641	54.359	6.003
O=c1oc2c(O)c(O)ccc2c2c1CCCC2 [D715-2438]	3.681	17.908	82.092	2.712	38.947	61.053	4.650
COc1cccc(N2C(=O)c3cc4ccccc4n3CC2(C)C(=O)NC2CCCCC2)c1 (centres unmarked) [E234-0006]	5.194	57.048	42.952	6.753	27.639	72.361	3.635
COc1ccc(N2C(=O)c3cc4ccccc4n3CC2(C)C(=O)NC2CCCCC2)c(OC)c1 (centres unmarked) [E234-0018]	3.770	38.606	61.394	4.570	22.579	77.421	2.970
CCCCN(CC)C(=O)C1CCCN(c2ccc(-c3ccccc3)nn2)C1 (centres unmarked) [Compound F305-0030]	4.852	42.608	57.392	5.044	35.423	64.577	4.659
